Converted amounts (≈) assume the structure as drawn. Where two headings read alike, the source gives them in different places. Positions of bridges follow the written chain, without caps; N, C: chain ends. Residues, ends and D or L forms follow the SMILES beside them. Groups on a side chain read outwards from the residue. Chains are numbered I, II in the order given. *: point of attachment. LeuLys(Leu) = CC(C)C[C@H](N)C(=O)NCCCC[C@H](NC(=O)[C@@H](N)CC(C)C)C(=O)*; X2 = NCCCC[C@H](N)C(=O)NCCCC[C@H](NC(=O)[C@@H](N)CCCCN)C(=O)*; X1 = CCCCCCCCCCCCCCCCCCCCCCCC(=O)*; Palmitoyl = CCCCCCCCCCCCCCCC(=O)*
Experiments:
Assay type in all cases: cell-based
[1] = system: Bacillus subtilis (strain BR151)
Method: (§1) Antimicrobial activity was assayed against Bacillus subtilis (strain BR151), Escherichia coli (strain DH5α) and Pseudomonas aeruginosa (strain PA01). Microdilution broth method was used to determine the minimal inhibitory concentration (MIC). A colony of bacteria was grown in LB-medium overnight at 37° C. The concentration was quantified by measuring absorbance at 600 nm and diluted to OD600=0.1 (1×10^8 CFU/mL). The samples were prepared as stock solutions of 1 mg mL^−1 in H2O and diluted serially by ⅔ in nutrient LB in a 96-well microtiterplate (Cornstar, polypropylene, untreated). The sample solutions (50 μL) were mixed with the diluted bacterial suspension with an OD600 nm of 0.001 (50 μL). […] The plates were incubated at 37° C. until satisfactory growth (18-24 h). For each test, two columns of the plate were kept for sterility control (SC, broth only) and growth control (GC, broth with bacterial inoculums, no antibiotics). 10 μL of a solution of MTT (0.1% in H2O) was added to each well. The minimal inhibitory concentration (MIC) was defined as the lowest concentration of the antimicrobial substance (peptide dendrimer) that inhibited visible growth of the tested bacteria (yellow) with the unaided eye. For microbiological study the linear peptide LysTyrLysLysAlaLeuLysLysLeuAlaLysLeuLeu (SEQ ID No. 1) was used as reference.
(§2) The AMPD library was tested for their antimicrobial activity against B. subtilis BR151, a Gram-positive bacterium and E. coli DH5α, another Gram-negative bacterium, to cover a broader spectrum of different bacteria. […] Therefore no explicit SAR can be established, but clearly the hydrophobic amino acids Ala and Tyr seem to have a significant influence in reducing activity.

[2] = system: Escherichia coli (strain DH5α)
Method: as §1, §2

[3] = system: Pseudomonas aeruginosa (strain PA01); assay: microbe, parasite or virus in culture; conditions: strain
Outline: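 P. aeruginosa PAO1 grown overnight in LB, diluted to OD600 0.001 and mixed with ⅔-step peptide dilutions, then incubated at 37 °C for 18–24 h. After MTT staining, the lowest concentration with no visible growth was read by eye as the MIC.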

| Molecule | MIC B. subtilis BR151 ([1]; strain BR151) [µg/mL] | MIC E. coli DH5α ([2]; DH5α) [µg/mL] | MIC P. aeruginosa PAO1 [3] [µg/mL] | MIC B. subtilis BR151 ([1]; LB medium) [µg/mL] | MIC E. coli DH5α ([2]; LB medium) [µg/mL] |
| --- | --- | --- | --- | --- | --- |
| CC(C)C[C@H](NC(=O)[C@H](CC(C)C)NC(=O)[C@H](CCCCNC(=O)[C@H](CC(C)C)NC(=O)[C@H](CC(C)C)NC(=O)[C@H](CCCCNC(=O)[C@H](CCCCN)NC(=O)[C@H](CCCCN)NC(=O)[C@H](CCCCNC(=O)[C@H](CCCCN)NC(=O)[C@@H](N)CCCCN)NC(=O)[C@H](CCCCN)NC(=O)[C@@H](N)CCCCN)NC(=O)[C@H](CCCCN)NC(=O)[C@H](CCCCN)NC(=O)[C@H](CCCCNC(=O)[C@H](CCCCN)NC(=O)[C@@H](N)CCCCN)NC(=O)[C@H](CCCCN)NC(=O)[C@@H](N)CCCCN)NC(=O)[C@H](CC(C)C)NC(=O)[C@H](CC(C)C)NC(=O)[C@H](CCCCNC(=O)[C@H](CCCCN)NC(=O)[C@H](CCCCN)NC(=O)[C@H](CCCCNC(=O)[C@H](CCCCN)NC(=O)[C@@H](N)CCCCN)NC(=O)[C@H](CCCCN)NC(=O)[C@@H](N)CCCCN)NC(=O)[C@H](CCCCN)NC(=O)[C@H](CCCCN)NC(=O)[C@H](CCCCNC(=O)[C@H](CCCCN)NC(=O)[C@@H](N)CCCCN)NC(=O)[C@H](CCCCN)NC(=O)[C@@H](N)CCCCN)C(N)=O [MSt-140, (KK)8(KKK)4(KLL)2(KLL)] (I: H-KKK([Lys-Lys])KKKLLKLL-NH2 / II: H-KKK([Lys-Lys])KKKLL / III: H-KKK([Lys-Lys])KK / IV: H-KKK([Lys-Lys])KK; amide I:6-IV:C, I:9-II:C, II:6-III:C) | 6 (≈ 1.28 µM) | >95 |  |  |  |
| CCCCCCCCCCCCCCCCCCCCCCCC(=O)NCCCC[C@H](NC(=O)[C@H](CC(C)C)NC(=O)[C@H](CCCCN)NC(=O)[C@H](CCCCNC(=O)[C@H](CC(C)C)NC(=O)[C@H](CCCCN)NC(=O)[C@H](CCCCNC(=O)[C@H](CC(C)C)NC(=O)[C@@H](N)CCCCN)NC(=O)[C@H](CC(C)C)NC(=O)[C@@H](N)CCCCN)NC(=O)[C@H](CC(C)C)NC(=O)[C@H](CCCCN)NC(=O)[C@H](CCCCNC(=O)[C@H](CC(C)C)NC(=O)[C@@H](N)CCCCN)NC(=O)[C@H](CC(C)C)NC(=O)[C@@H](N)CCCCN)C(N)=O [MSt-287, (KL)4(KKL)2(KKLKC24)] (I: H-KLK([Leu-Lys])KLKKLK(X1)-NH2 / II: H-KLK([Leu-Lys])KL; amide I:6-II:C) | 26 (≈ 10.1 µM) | 13 (≈ 5.06 µM) |  |  |  |
| CCCCCCCCCCCCCCCC(=O)NCCCC[C@H](NC(=O)[C@H](CC(C)C)NC(=O)[C@H](CCCCN)NC(=O)[C@H](CCCCNC(=O)[C@H](CC(C)C)NC(=O)[C@H](CCCCN)NC(=O)[C@H](CCCCNC(=O)[C@H](CC(C)C)NC(=O)[C@H](CCCCN)NC(=O)[C@H](CCCCNC(=O)[C@H](CC(C)C)NC(=O)[C@@H](N)CCCCN)NC(=O)[C@H](CC(C)C)NC(=O)[C@@H](N)CCCCN)NC(=O)[C@H](CC(C)C)NC(=O)[C@H](CCCCN)NC(=O)[C@H](CCCCNC(=O)[C@H](CC(C)C)NC(=O)[C@@H](N)CCCCN)NC(=O)[C@H](CC(C)C)NC(=O)[C@@H](N)CCCCN)NC(=O)[C@H](CC(C)C)NC(=O)[C@H](CCCCN)NC(=O)[C@H](CCCCNC(=O)[C@H](CC(C)C)NC(=O)[C@H](CCCCN)NC(=O)[C@H](CCCCNC(=O)[C@H](CC(C)C)NC(=O)[C@@H](N)CCCCN)NC(=O)[C@H](CC(C)C)NC(=O)[C@@H](N)CCCCN)NC(=O)[C@H](CC(C)C)NC(=O)[C@H](CCCCN)NC(=O)[C@H](CCCCNC(=O)[C@H](CC(C)C)NC(=O)[C@@H](N)CCCCN)NC(=O)[C@H](CC(C)C)NC(=O)[C@@H](N)CCCCN)C(N)=O [MSt-301, (KL)8(KKL)4(KKL)2(KKLKC16)] (I: H-KLK([Leu-Lys])KLKKLKKLK(Palmitoyl)-NH2 / II: H-KLK([Leu-Lys])KLKKL / III: H-KLK([Leu-Lys])KL / IV: H-KLK([Leu-Lys])KL; amide I:6-IV:C, I:9-II:C, II:6-III:C) |  | 8 (≈ 1.63 µM) | 11 (≈ 2.24 µM) |  |  |
| (KL)32(KKL)16(KKLCxKL)8(KKL)4(KKL)2KKL [CCS-15] |  |  |  | 26 | 8 |
| CC(C)C[C@H](NC(=O)[C@H](CCCCNC(=O)[C@@H](N)CC(C)C)NC(=O)[C@@H](N)CC(C)C)C(=O)NCCCC[C@H](NC(=O)[C@H](CC(C)C)NC(=O)[C@H](CCCCNC(=O)[C@@H](N)CC(C)C)NC(=O)[C@@H](N)CC(C)C)C(=O)N[C@@H](CCCCN)C(=O)NCCCC[C@H](NC(=O)[C@H](CCCCN)NC(=O)[C@H](CCCCNC(=O)[C@H](CC(C)C)NC(=O)[C@H](CCCCNC(=O)[C@@H](N)CC(C)C)NC(=O)[C@@H](N)CC(C)C)NC(=O)[C@H](CC(C)C)NC(=O)[C@H](CCCCNC(=O)[C@@H](N)CC(C)C)NC(=O)[C@@H](N)CC(C)C)C(=O)N[C@@H](CCCCN)C(N)=O [MSt-149, (L)8(KL)4(KK)2(KK)NH2] (I: H-LK(Leu)LK([Leu-LeuLys(Leu)])KKK-NH2 / II: H-LK(Leu)LK([Leu-LeuLys(Leu)])K; amide I:6-II:C; N-terminus assumed) | 8 (≈ 3.01 µM) | >90 |  |  |  |
| CC(C)C[C@H](NC(=O)[C@H](CCCCNC(=O)[C@H](CC(C)C)NC(=O)[C@H](CCCCNC(=O)[C@H](CCCCN)NC(=O)[C@H](CCCCNC(=O)[C@@H](N)CCCCN)NC(=O)[C@@H](N)CCCCN)NC(=O)[C@H](CCCCN)NC(=O)[C@H](CCCCNC(=O)[C@@H](N)CCCCN)NC(=O)[C@@H](N)CCCCN)NC(=O)[C@H](CC(C)C)NC(=O)[C@H](CCCCNC(=O)[C@H](CCCCN)NC(=O)[C@H](CCCCNC(=O)[C@@H](N)CCCCN)NC(=O)[C@@H](N)CCCCN)NC(=O)[C@H](CCCCN)NC(=O)[C@H](CCCCNC(=O)[C@@H](N)CCCCN)NC(=O)[C@@H](N)CCCCN)C(N)=O [MSt-148, (K)8(KK)4(KL)2(KL)NH2] (I: H-KK(Lys)KK([Lys-X2])LKL-NH2 / II: H-KK(Lys)KK([Lys-X2])L; amide I:6-II:C; N-terminus assumed) | 12 (≈ 4.3 µM) | >90 |  |  |  |
| CC(C)C[C@H](NC(=O)[C@H](CCCCN)NC(=O)[C@H](CC(C)C)NC(=O)[C@H](CCCCN)NC(=O)[C@H](CC(C)C)NC(=O)[C@H](CCCCN)NC(=O)[C@H](CC(C)C)NC(=O)[C@H](CCCCN)NC(=O)[C@H](CC(C)C)NC(=O)[C@H](CCCCN)NC(=O)[C@H](CC(C)C)NC(=O)[C@H](CCCCN)NC(=O)[C@H](CC(C)C)NC(=O)[C@@H](N)CCCCN)C(N)=O [MSt-117, KLKLKLKLKLKLKL, reference compound] (H-KLKLKLKLKLKLKL-NH2) | 14 (≈ 8.2 µM) | 13 (≈ 7.62 µM) |  |  |  |
| CC(C)C[C@H](NC(=O)[C@H](CCCCNC(=O)[C@H](CCCCN)NC(=O)[C@H](CC(C)C)NC(=O)[C@H](CCCCNC(=O)[C@H](CCCCN)NC(=O)[C@H](CC(C)C)NC(=O)[C@H](CCCCNC(=O)[C@H](CCCCN)NC(=O)[C@@H](N)CC(C)C)NC(=O)[C@H](CCCCN)NC(=O)[C@@H](N)CC(C)C)NC(=O)[C@H](CCCCN)NC(=O)[C@H](CC(C)C)NC(=O)[C@H](CCCCNC(=O)[C@H](CCCCN)NC(=O)[C@@H](N)CC(C)C)NC(=O)[C@H](CCCCN)NC(=O)[C@@H](N)CC(C)C)NC(=O)[C@H](CCCCN)NC(=O)[C@H](CC(C)C)NC(=O)[C@H](CCCCNC(=O)[C@H](CCCCN)NC(=O)[C@H](CC(C)C)NC(=O)[C@H](CCCCNC(=O)[C@H](CCCCN)NC(=O)[C@@H](N)CC(C)C)NC(=O)[C@H](CCCCN)NC(=O)[C@@H](N)CC(C)C)NC(=O)[C@H](CCCCN)NC(=O)[C@H](CC(C)C)NC(=O)[C@H](CCCCNC(=O)[C@H](CCCCN)NC(=O)[C@@H](N)CC(C)C)NC(=O)[C@H](CCCCN)NC(=O)[C@@H](N)CC(C)C)C(=O)N[C@@H](CCCCN)C(N)=O [MSt-199, (LK)8(KLK)4(KLK)2(KLK)] (I: H-LKK([Lys-Leu])LKKLKKLK-NH2 / II: H-LKK([Lys-Leu])LKKLK / III: H-LKK([Lys-Leu])LK / IV: H-LKK([Lys-Leu])LK; amide I:6-IV:C, I:9-II:C, II:6-III:C) | 3 (≈ 0.662 µM) |  | 9 (≈ 1.98 µM) |  |  |

Reference: US10336792B2, “Antimicrobial peptide dendrimers” (priority 2014, dated 2019)
